Source: US20240197891A1, “PHARMACEUTICAL COMPOSITIONS COMPRISING POH DERIVATIVES” (UNIVERSITY OF SOUTHERN CALIFORNIA, priority 2021, published 2024)
Entries after “also recorded” stand apart in the source; their conditions may differ.

Legend:
[1] = system: subcutaneous U-87 gliomas; assay: Nude mouse subcutaneous glioma model; format: in vivo; conditions: local application via Q-tip, 1 cc/application/day, 8 weeks; 60 days
Procedure: Inhibition of tumor growth by butyryl-POH was studied in a nude mouse subcutaneous glioma model. Mice were injected with U-87 glioma cells (500,000 cells/injection) and allowed to form a palpable nodule over two weeks. Once palpable nodule was formed, the mice were treated with local application of various compounds as indicated in FIGS. 9A and 9B via a Q-tip (1 cc/application/day) over a period of 8 weeks.

U251 human glioma cells = assay: MTT cytotoxicity assay, U251 cells
From the text: (§1) In vitro efficacy of the present composition can be determined using methods well known in the art. For example, the cytotoxicity of the present monoterpene (or sesquiterpene) and/or the therapeutic agents may be studied by MTT [3-(4,5-dimethylthiazol-2-yl)-2,5-diphenyl tetrazolium bromide] cytotoxicity assay. MTT assay is based on the principle of uptake of MTT, a tetrazolium salt, by metabolically active cells where it is metabolized into a blue colored formazan product, which can be read spectrometrically. J. of Immunological Methods 65: 55 63, 1983. The cytotoxicity of the present monoterpene (or sesquiterpene) derivative and/or the therapeutic agents may be studied by colony formation assay. Functional assays for inhibition of VEGF secretion and IL-8 secretion may be performed via ELISA. Cell cycle block by the present monoterpene (or sesquiterpene) derivative and/or the therapeutic agents may be studied by standard propidium iodide (PI) staining and flow cytometry. Invasion inhibition may be studied by Boyden chambers. In this assay a layer of reconstituted basement membrane, Matrigel, is coated onto chemotaxis filters and acts as a barrier to the migration of cells in the Boyden chambers. Only cells with invasive capacity can cross the Matrigel barrier. Other assays include, but are not limited to cell viability assays, apoptosis assays, and morphological assays.
(§2) To compare the cytotoxicity of Rolipram POH Carbamate (POH-Rolipram) (e.g., synthesized by the method in Example 5) with rolipram, […] inducing differentiation and apoptosis in glioma cells, A172, U87, U251 and LN229 human glioma cells were treated with either POH-Rolipram or rolipram for 48 hours.
(§3) MTT cytotoxicity assays were carried out after cells were treated with the TMZ-POH conjugate. The MTT cytotoxicity assays were carried out as described in Chen T C, et al. Green tea epigallocatechin gallate enhances therapeutic efficacy of temozolomide in orthotopic mouse glioblastoma models. Cancer Lett. 2011 Mar. 28; 302(2):100-8.

[2] = system: human malignant glioma cells U87, A172 and U251; assay: MTT cytotoxicity assays on U87, A172 and U251 cells (stated jointly); format: cell-based
Procedure: J. of Immunological Methods 65: 55 63, 1983. […] Invasion inhibition may be studied by Boyden chambers.
Then U87, A172 and U251 cells were treated with dimethyl celecoxib bisPOH carbamate (POH-DMC) (e.g., synthesized by the method in Example 1), and the MTT cytotoxicity assays performed (FIG. 2).
Then TMZ-resistant glioma cell lines U87, A172 and U251 cells were treated with temozolomide POH carbamate (POH-TMZ) (e.g., synthesized by the method in Example 3).

[3] = system: TMZ sensitive (U251) cells; assay: Colony forming assay, TMZ sensitive U251 cells; format: cell-based, human
Procedure: (§4) Colony forming assays were carried out after cells were treated with TMZ alone, POH alone, and the TMZ-POH conjugate. […] Cancer Lett. 2011 Mar. 28; 302(2):100-8.

[4] = system: TMZ resistant (U251TR) U251 cells; assay: Colony forming assay, TMZ resistant U251TR cells; format: cell-based, human
Procedure: as §4

[5] = system: TMZ resistant cells (U251TR); assay: MTT cytotoxicity assay, U251TR cells
Procedure: as §3

normal astrocytes = assay: MTT cytotoxicity assay, normal astrocytes; conditions: listed as TMZ-POH
Procedure: as §3

[6] = system: brain endothelial cells (BEC); assay: MTT cytotoxicity assay, brain endothelial cells; format: cell-based
From the text: (§5) Cancer Lett. 2011 Mar. 28; 302(2):100-8.

[7] = system: tumor brain endothelial cells (TuBEC); assay: MTT cytotoxicity assay, tumor brain endothelial cells; format: cell-based
From the text: as §5

[8] = system: USC-04 glioma cancer stem cells; assay: MTT cytotoxicity assay, USC-04 glioma cancer stem cells; format: cell-based; conditions: USC-04, MTT
From the text: as §5

[9] = system: USC-02 glioma cancer stem cells; assay: MTT cytotoxicity assay, USC-02 glioma cancer stem cells; format: cell-based; conditions: USC-02, MTT
From the text: as §5

[10] = system: ER stress (CHOP) in TMZ sensitive and resistant U251 glioma cells; assay: Western blot of ER stress in U251 glioma cells; format: cell-based, human; conditions: 18 hr
Procedure: Western blots were performed after TMZ sensitive and resistant glioma cells were treated with the TMZ-POH conjugate for 18 hr. […] Activation of the proapoptotic protein CHOP was shown at concentrations as low as 60 uM of TMZ-POH.

A172 human glioma cells = assay: MTT cytotoxicity assay, A172 cells; format: cell-based; conditions: A-172 cells, 48 hours
From the text: as §1, with “assays. […]” for “assays.”

U87 human glioma cells = assay: MTT cytotoxicity assay, U87 cells; format: cell-based; conditions: U-87 cells, 48 hours
From the text: as §1, with “assays. […]” for “assays.”

LN229 human glioma cells = assay: cells
From the text: as §1, §2

[11] = system: A172, U87, U251 and LN229 human glioma cells; assay: MTT assay, POH-Rolipram versus rolipram across glioma cell types (stated jointly); format: cell-based; conditions: each of A172, U87, U251, LN229; 48 hours
From the text: as §1, with “assays. […]” for “assays.”

For C=C(C)C1CC=C(COC(=O)CCC)CC1 (stereo not shown) [Butyryl-POH], the “inhibition of tumor growth” value [1] was “greatest inhibition of tumor growth”.

With C=C(C)C1CC=C(COC(=O)NC(=O)c2ncn3c(=O)n(C)nnc23)CC1 (stereo not shown) [POH-TMZ] the “cytotoxicity (MTT)” value (U251 human glioma cells; TMZ sensitive U251 cells, Example 9) was “demonstrated cytotoxicity”, the “cytotoxicity / kill rates (MTT)” value [2] was “substantially higher kill rates” and the “cytotoxicity (colony forming assay)” value ([3]; TMZ sensitive U251 cells) was “demonstrated cytotoxicity”. The “potency in the colony forming assays compared to POH alone” value ([3]; U251 and U251TR cells) was “substantially greater potency compared to POH alone”, the “cytotoxicity (colony forming assay)” value [4] was “demonstrated cytotoxicity” and the “cytotoxicity (MTT)” value [5] was “demonstrated cytotoxicity”. For the same compound, the “cytotoxicity (MTT)” value (normal astrocytes) was “not towards normal astrocytes; also recorded: did not induce significant cytotoxicity”, the “cytotoxicity (MTT)” value ([6]; confluent BEC) was “did not induce significant cytotoxicity” and the “cytotoxicity (MTT)” value ([6]; subconfluent BEC, high concentrations) was “Mild to moderate cytotoxicity”. The “cytotoxicity (MTT)” value [7] was “did not induce significant cytotoxicity”, the IC50 [8] was 150 µM and the IC50 [9] was 60 µM. The “ER stress (ERS) induction” value ([10]; TMZ sensitive and resistant U251 cells) was “induces ER stress” and the “lowest concentration showing activation of the proapoptotic protein CHOP” value ([10]; western blot) was 60 µM.

In the case of C=C(C)C1CC=C(COC(=O)N2CC(c3ccc(OC)c(OC4CCCC4)c3)CC2=O)CC1 (stereo not shown) [POH-rolipram, 4-(3-cyclopentyloxy-4-methoxyphenyl)-2-oxo-pyrrolidine-1-carboxylic acid 4-isopropenyl cyclohex-1-enylmethyl ester], the IC50 (A172 human glioma cells) is reported as 50 µM, the IC50 (U87 human glioma cells) is reported as 180 µM and the “cytotoxicity at 100 uM” value (U251 human glioma cells) is reported as ~100%. For the same compound, the IC50 (U251 human glioma cells; U251 cells, MTT, 48 hours) was 50 µM, the “cytotoxicity at 10 uM” value (LN229 human glioma cells) was ~100% and the IC50 (LN229 human glioma cells; LN229 cells, MTT, 48 hours) was 100 µM. For the same compound, the “kill rates (MTT)” value [11] was “substantially higher kill rates compared to rolipram alone”.
